Key:
occludin = test: Test for evaluating TJ-forming ability: occludin immunostaining fluorescence intensity in Skin Model slices; format: cell-based; details: 1 w/v %, relative to non-applied group
TRPV4 gene = test: Promoting effect on TRPV4 gene expression (quantitative real-time PCR, standardized to GAPDH); format: cell-based, human; details: SVHK cells, 1 μM, 48 hours, purified water control = 1.00
Experimental: Human epidermal cells (SVHK cells) which were established from introduction of SV40 gene into human epidermal cells, were seeded on a plastic petri dish at a seeding density of 10,000 cells/cm^2 and cultured for 24 hours in Dulbecco's Modified Eagle's Medium (DMEM, manufactured by Sigma-Aldrich Co. LLC.) containing 10% fetal bovine serum. Next, to the medium of SVHK cells, an inositol derivative (composition thereof will be described below) dissolved in purified water was added to the final concentration of 1 μM, and culturing was further performed for 48 hours. As for a control, in place of 1 μM inositol derivative, the same amount of purified water was added to SVHK cells, and the cells were cultured in the same manner as above. […] The inositol derivative used was analyzed by using liquid chromatography-mass spectrometry (LC-MS), and the results are as follows. […] Next, quantitative real-time PCR was performed using this cDNA as a template, and the expression levels of TRPV4 gene in SVHK cells of each group were quantified. In addition, the expression level of glyceraldehyde-3-phosphate dehydrogenase (GAPDH) which is a housekeeping gene in which variation is not observed in the expression by adding a compound, as an internal standard gene, was quantified, and based on the expression levels of GAPDH gene in SVHK cells of each group, the expression levels of TRPV4 gene were standardized. […]

claudin-1 (CLDN1) gene = test: Promoting effect on TJ-related gene expression: claudin-1 (CLDN1) gene (quantitative real-time PCR, standardized to GAPDH); format: cell-based, human; details: SVHK cells, 1 μM, 48 hours, purified water control = 1.00
Experimental: (§1) Human epidermal cells (SVHK cells) which were established from introduction of SV40 gene into human epidermal cells, were seeded on a plastic petri dish at a seeding density of 10,000 cells/cm^2 and cultured for 24 hours in Dulbecco's Modified Eagle's Medium (DMEM, manufactured by Sigma-Aldrich Co. LLC.) containing 10% fetal bovine serum. Next, to the medium of SVHK cells, 1 μM inositol derivative (composition thereof will be described below) dissolved in purified water was added to the final concentration of 1 μM, and culturing was further performed for 48 hours. […] The inositol derivative used was analyzed by using liquid chromatography-mass spectrometry (LC-MS), and the results are as follows. […] Next, quantitative real-time PCR was performed using this cDNA as a template, and the expression levels of claudin-1 (CLDN1) gene and occludin (OCL) gene in SVHK cells of each group were quantified. In addition, the expression level of glyceraldehyde-3-phosphate dehydrogenase (GAPDH) which is a housekeeping gene in which variation is not observed in the expression by adding a compound, as an internal standard gene, was quantified, and based on the expression levels of GAPDH gene in SVHK cells of each group, the expression levels of CLDN1 gene and OCL gene were standardized. […]

[1] = test system: Skin Model (type EP1-200); test: Test for evaluating TJ-forming ability: transepidermal water loss (TEWL) of Skin Model; format: cell-based; details: 1 w/v % on surface of Skin Model, 24 hours
Experimental: Skin Model (type “EP1-200” manufactured by KURABO INDUSTRIES LTD.) was cultured before 24 hours at 37° C. under 5% CO2. Next, an inositol derivative (composition thereof will be described below) dissolved in purified water in each concentration of 0.1, 0.5, and 1 w/v % was added to the surface of Skin Model, and culturing was further performed for 24 hours. Next, the inositol derivative was removed, Skin Model was washed three times with a phosphate buffer solution, and transepidermal water loss (TEWL) thereof was measured. For the measurement of TEWL, a cyclone-type moisture-transpiration meter (manufactured by […]) was used. The inositol derivative used was analyzed by using liquid chromatography-mass spectrometry (LC-MS), and the results are as follows. […] As for a control, prepared were a group added with nothing in place of the inositol derivative and a group added with the same amount of purified water in place of the inositol derivative, and TEWL was measured in the same manner as above. In addition, for comparison, prepared was a group in which myo-inositol dissolved in purified water in a concentration of 1 w/v % was added in place of the inositol derivative, and TEWL was measured in the same manner as above.

occludin (OCL) gene = test: Promoting effect on TJ-related gene expression: occludin (OCL) gene (quantitative real-time PCR, standardized to GAPDH); format: cell-based, human; details: SVHK cells, 1 μM, 48 hours, purified water control = 1.00
Experimental: as §1

O[C@H]1[C@H](O)[C@@H](O)[C@H](O)[C@@H](O)[C@H]1O [Myo-inositol, myo-inositol]
Fluorescence intensity (relative value) (occludin): 3.32 relative value | Expression levels of TRPV4 gene (relative value) (TRPV4 gene): 0.84 relative value | Expression levels of gene (relative value) CLDN1 (claudin-1 (CLDN1) gene): 1.57 relative value | TEWL [1]: 30.7 ± 2.9 g/(h · m^2) | Expression levels of gene (relative value) OCL (occludin (OCL) gene): 0.94 relative value

From patent US20170312301A1, “SKIN BARRIER FUNCTION-IMPROVING AGENT AND COMPOSITION FOR IMPROVING SKIN BARRIER FUNCTION” (SHOWA DENKO K.K., priority 2014, published 2017)
